Results published in PMC12136037, “Type II kinase inhibitors that target Parkinson’s disease–associated LRRK2” (Science Advances, 2025).
Where “and” joins values, the source holds several entries; their conditions need not be identical. Equal entries are not always repeated.

Tests used:
LRRK2^RCKW = biological target: T1, LRRK2^RCKW (Homo sapiens, UniProt Q5S007); test: Biochemical LRRK2 activity assay (PhosphoSense, AssayQuant SOX peptide AQT0615); details: for normalized response (LRRK2 activity): normalized to 0% (no kinase) and 100% (no inhibitor) control, two singlicate columns per compound; for IC50: LRRK2^RCKW kinase activity, in vitro
T1 construct: LRRK2 R1327 to E2527; His6-Z-tag (TEV cleavable) (N, cleaved yes); host or cells: Sf9 insect cells (baculovirus)
T1 sequence (Q5S007 1327-2527): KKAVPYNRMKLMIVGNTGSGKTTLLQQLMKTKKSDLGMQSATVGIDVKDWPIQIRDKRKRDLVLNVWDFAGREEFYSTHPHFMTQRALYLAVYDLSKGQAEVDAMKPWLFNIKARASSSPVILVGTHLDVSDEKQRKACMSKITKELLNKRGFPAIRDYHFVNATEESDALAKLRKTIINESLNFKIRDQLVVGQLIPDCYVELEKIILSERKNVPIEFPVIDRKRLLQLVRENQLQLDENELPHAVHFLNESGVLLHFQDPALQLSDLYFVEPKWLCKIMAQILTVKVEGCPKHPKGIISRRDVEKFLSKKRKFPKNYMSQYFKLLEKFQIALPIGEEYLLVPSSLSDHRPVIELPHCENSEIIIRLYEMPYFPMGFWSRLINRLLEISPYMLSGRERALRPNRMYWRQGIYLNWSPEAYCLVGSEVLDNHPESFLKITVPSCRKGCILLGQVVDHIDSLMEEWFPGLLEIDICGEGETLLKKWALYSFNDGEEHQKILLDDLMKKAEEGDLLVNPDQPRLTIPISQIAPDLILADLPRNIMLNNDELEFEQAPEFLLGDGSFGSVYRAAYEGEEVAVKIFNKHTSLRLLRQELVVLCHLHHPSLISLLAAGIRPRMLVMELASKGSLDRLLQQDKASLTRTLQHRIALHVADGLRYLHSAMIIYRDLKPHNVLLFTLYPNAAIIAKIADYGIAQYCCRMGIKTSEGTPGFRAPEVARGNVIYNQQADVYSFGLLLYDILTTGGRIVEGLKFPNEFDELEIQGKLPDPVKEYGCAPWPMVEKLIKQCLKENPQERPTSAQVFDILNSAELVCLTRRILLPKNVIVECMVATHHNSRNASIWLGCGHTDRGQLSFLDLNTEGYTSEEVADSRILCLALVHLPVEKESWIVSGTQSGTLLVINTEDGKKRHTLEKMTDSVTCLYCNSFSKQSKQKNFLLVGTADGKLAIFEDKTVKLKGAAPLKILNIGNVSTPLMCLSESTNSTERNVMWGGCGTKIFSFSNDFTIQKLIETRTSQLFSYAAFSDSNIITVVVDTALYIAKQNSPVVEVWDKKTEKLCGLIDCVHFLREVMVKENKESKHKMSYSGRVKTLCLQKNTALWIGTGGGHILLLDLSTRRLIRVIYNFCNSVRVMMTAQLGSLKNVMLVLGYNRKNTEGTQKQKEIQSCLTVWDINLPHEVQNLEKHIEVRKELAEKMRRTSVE
How it was run: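 Controls lacked protein and compound (0%) or compound only (100%). IC50 derived by nonlinear regression of normalized response versus log[inhibitor].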

[1] = biological target: T2, ~100 representative kinases (Homo sapiens, UniProt Q96GD4); test: DSF 100 kinase selectivity screen; type: binding; details: Protein AURKB; average of three replicates;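 further: compound tested at 20 µM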
T2 construct: Recombinant protein kinase domains with a concentration of 2 μM
T2 sequence (Q96GD4 whole entry, the tested form may be a part): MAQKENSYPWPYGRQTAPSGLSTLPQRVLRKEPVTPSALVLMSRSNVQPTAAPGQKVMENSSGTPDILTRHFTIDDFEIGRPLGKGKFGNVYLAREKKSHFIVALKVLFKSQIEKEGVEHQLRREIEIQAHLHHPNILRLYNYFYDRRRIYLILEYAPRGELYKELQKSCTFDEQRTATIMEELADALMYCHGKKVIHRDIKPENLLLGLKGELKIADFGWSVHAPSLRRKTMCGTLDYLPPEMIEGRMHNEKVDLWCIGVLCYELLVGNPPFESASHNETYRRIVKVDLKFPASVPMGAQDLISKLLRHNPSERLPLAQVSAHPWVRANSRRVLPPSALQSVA
How it was run: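 Each kinase domain, at 2 μM, is mixed with 20 μM test compound and SYPRO Orange in Hepes (20 mM, pH 7.5) with 500 mM NaCl. Temperature is then raised at 3°C/min and fluorescence-monitored unfolding yields the melting temperature change, ΔTm in degrees Celsius.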

SMILES | normalized response (LRRK2 activity) (LRRK2^RCKW; log[inhibitor(mol)] -5.12494) | normalized response (LRRK2 activity) (LRRK2^RCKW; log[inhibitor(mol)] -5.60206) | normalized response (LRRK2 activity) (LRRK2^RCKW; log[inhibitor(mol)] -6.30103) | normalized response (LRRK2 activity) (LRRK2^RCKW; log[inhibitor(mol)] -6.90309) | normalized response (LRRK2 activity) (LRRK2^RCKW; log[inhibitor(mol)] -7.30103) | normalized response (LRRK2 activity) (LRRK2^RCKW; log[inhibitor(mol)] -7.60206) | normalized response (LRRK2 activity) (LRRK2^RCKW; log[inhibitor(mol)] -8.09691) | normalized response (LRRK2 activity) (LRRK2^RCKW; log[inhibitor(mol)] -8.61979) | normalized response (LRRK2 activity) (LRRK2^RCKW; log[inhibitor(mol)] -9.09691) | normalized response (LRRK2 activity) (LRRK2^RCKW; log[inhibitor(mol)] -9.39794) | dTm [1] | IC50 (LRRK2^RCKW) | normalized response (LRRK2 activity) (LRRK2^RCKW; log[inhibitor(mol)] -4.82391)
CNC(=O)c1cc(Oc2ccc(NC(=O)Nc3cc(C(C)(C)C)nn3-c3ccc4ncccc4c3)c(F)c2)ccn1 [Rebastinib, reference compound] | -10.5496% and -14.6792% | -7.259% and -5.877% | 2.212% and 3.3144% | 28.2838% and 28.5032% | 54.9753% and 51.2954% | 71.3236% and 68.1209% | 89.2569% and 91.5273% | 98.1961% and 113.387% | 109.62% and 109.044% | 108.15% and 116.184% | 1.16 K |  | 
CC(C)(C)c1cccc(NC(=O)C2(C(=O)Nc3cccc(-c4c[nH]c5ncnc(N6CCOCC6)c45)c3)CC2)c1 [Compound 22] | 10.6927% and 10.684% | 26.6669% and 27.2452% | 59.6653% and 62.0504% | 86.7302% and 90.6112% | 94.29% and 100.35% | 102.254% and 104.876% | 100.313% and 102.032% | 105% and 108.964% | 105.539% and 102.73% | 104.285% and 104.996% | 1.96 K | 0.886 ± 0.063 µM | 10.3797% and 6.914%
CCSc1nc(NC)c2c(-c3cccc(NC(=O)Nc4cc(C(C)(C)C)nn4-c4ccc(C)cc4)c3)c[nH]c2n1 [Compound 32] | -7.459% and -2.016% | 19.5756% and 16.293% | 31.5753% and 35.852% | 72.0233% and 73.3531% | 83.8241% and 86.8594% | 89.687% and 98.7972% | 90.4381% and 87.8004% | 96.4865% and 91.0964% | 94.4983% and 98.9209% | 96.9901% and 60.5361% | 0.28 K | 0.296 ± 0.039 µM | 

Now from value to molecule:

normalized response (LRRK2 activity) (LRRK2^RCKW; log[inhibitor(mol)] -5.12494) | normalized response (LRRK2 activity) (LRRK2^RCKW; log[inhibitor(mol)] -5.60206) | normalized response (LRRK2 activity) (LRRK2^RCKW; log[inhibitor(mol)] -6.30103) | normalized response (LRRK2 activity) (LRRK2^RCKW; log[inhibitor(mol)] -6.90309) | normalized response (LRRK2 activity) (LRRK2^RCKW; log[inhibitor(mol)] -7.30103) | normalized response (LRRK2 activity) (LRRK2^RCKW; log[inhibitor(mol)] -7.60206) | normalized response (LRRK2 activity) (LRRK2^RCKW; log[inhibitor(mol)] -8.09691) | normalized response (LRRK2 activity) (LRRK2^RCKW; log[inhibitor(mol)] -8.61979) | normalized response (LRRK2 activity) (LRRK2^RCKW; log[inhibitor(mol)] -9.09691) | normalized response (LRRK2 activity) (LRRK2^RCKW; log[inhibitor(mol)] -9.39794) | dTm [1] | IC50 (LRRK2^RCKW) | normalized response (LRRK2 activity) (LRRK2^RCKW; log[inhibitor(mol)] -4.82391) | SMILES
6.886% and 2.089% | 16.9372% and 25.3493% | 61.5503% and 64.2768% | 87.889% and 62.9679% | 95.1314% and 96.4468% | 95.9663% and 100.454% | 95.3684% and 96.0989% | 98.0471% and 98.2841% | 97.884% and 98.6428% | 99.7517% and 70.9452% | -2.86 K | 0.818 ± 0.056 µM | 4.179% and 4.042% | O=C(Nc1cccc(-c2c[nH]c3ncnc(N4CCOCC4)c23)c1)C1(C(=O)Nc2cc(Br)c(F)cc2F)CC1 [Compound 25]
15.329% and 15.4402% | 51.4182% and 54.957% | 74.2368% and 85.6074% | 93.8115% and 94.6865% | 93.6955% and 101.281% | 91.0994% and 95.9483% | 92.7092% and 88.0778% | 94.7784% and 93.0186% | 131.133% and 93.2265% | 94.4883% and 98.7958% | 2.17 K | 1.96 ± 0.652 µM | 9.9531% and 0.1682% | O=C(Nc1cc(F)cc(Br)c1)C1(C(=O)Nc2cccc(-c3c[nH]c4ncnc(N5CCOCC5)c34)c2)CC1 [Compound 27]
